What was measured:
[1] = system: Echinochloa oryzoides (Ard.) Fritsch.; assay: Preemergence weed control under flooded paddy conditions, ECHORC (Watergrass (Calif.)); assay type: in vivo; conditions: preemergence weeds, flooded paddy; for ECHORC: herbicidal effect rating 0-9, three to four weeks after treatment; for herbicidal effect rating, ECHORC: rated three to four weeks after treatment; as to herbicidal effect rating, ECHORC: meaning of each grade not given here
[2] = system: Cyperus serotinus, Rottb.; assay: Preemergence weed control under flooded paddy conditions, CYPSE (Flatsedge); assay type: in vivo; conditions: preemergence weeds; for CYPSE: herbicidal effect rating 0-9, three to four weeks after treatment; for herbicidal effect rating, CYPSE: rated three to four weeks after treatment; as to herbicidal effect rating, CYPSE: meaning of each grade not given here
Cyperus iria = assay: Preemergence weed control under flooded paddy conditions, CYPIR (Rice Flatsedge); assay type: in vivo; conditions: preemergence weeds, flooded paddy; for CYPIR: herbicidal effect rating 0-9, three to four weeks after treatment; for herbicidal effect rating, CYPIR: rated three to four weeks after treatment; as to herbicidal effect rating, CYPIR: meaning of each grade not given here
[3] = system: Monochoria vaginalis, Presl.; assay: Preemergence weed control under flooded paddy conditions, MOOVA (Monochoria); assay type: in vivo; conditions: preemergence weeds, flooded paddy, herbicidal effect rating 0-9, three to four weeks after treatment
[4] = system: Oryza sativa, (L.) Tebonnet; assay: Rice tolerance to post-transplant applications under flooded paddy conditions (Example 187), ORYSAT (Rice, Tebonnet); conditions: for ORYSAT: herbicidal effect rating 0-9, three to four weeks after treatment; for herbicidal effect rating ORYSAT: rated three to four weeks after treatment
Sagittaria pygmaea, L. = assay: Preemergence weed control under flooded paddy conditions, SAGPY (Arrowhead (Pygmaea)); assay type: in vivo; conditions: preemergence weeds, flooded paddy, rated three to four weeks after treatment; also: meaning of each grade not given here

SMILES | ECHORC ([1]; 0.0320 kg/ha) | ECHORC ([1]; 0.0620 kg/ha) | ECHORC ([1]; 0.1250 kg/ha) | CYPSE ([2]; 0.0320 kg/ha) | CYPSE ([2]; 0.0620 kg/ha) | CYPSE ([2]; 0.1250 kg/ha) | CYPSE ([2]; 0.2500 kg/ha) | CYPIR (Cyperus iria; 0.0320 kg/ha) | CYPIR (Cyperus iria; 0.0620 kg/ha) | CYPIR (Cyperus iria; 0.1250 kg/ha) | CYPIR (Cyperus iria; 0.2500 kg/ha) | MOOVA ([3]; 0.0320 kg/ha) | MOOVA ([3]; 0.0620 kg/ha) | MOOVA ([3]; 0.1250 kg/ha) | MOOVA ([3]; 0.2500 kg/ha) | ORYSAT ([4]; 0.0320 kg/ha) | ORYSAT ([4]; 0.0620 kg/ha) | ORYSAT ([4]; 0.1250 kg/ha) | ORYSAT ([4]; 0.2500 kg/ha) | herbicidal effect rating, ECHORC ([1]; Rate 0.0320 kg/ha) | other results
CC(Cl)c1nsc2ccc(-n3c(=O)cc(C(F)(F)F)n(C)c3=O)cc12 (stereo not shown) [Example 416, 2,4(1H,3H)-Pyrimidinedione, 3-[3-(1-chloroethyl)-1,2-benzisothiazol-5-yl]-1-methyl-6-(trifluoromethyl)-] | 0.0 | 3.0 | 3.0 | 0.0 | 0.0 | 0.0 | 3.0 | 4.0 | 4.0 | 4.0 | 8.0 | 7.0 | 7.0 | 7.0 | 9.0 | 6.0 | 7.0 | 9.0 | 9.0 |  | ECHORC ([1]; 0.2500 kg/ha): 9.0
CN(/N=C/c1nsc2ccc(-n3c(=O)cc(C(F)(F)F)n(C)c3=O)cc12)c1ccccc1 [Example 412, 1,2-Benzisothiazole-3-carboxaldehyde, 5-[3,6-dihydro-3-methyl-2,6-dioxo-4-(trifluoromethyl)-1(2H)-pyrimidinyl]-, 3-(methylphenylhydrazone), (E)-] | 0.0 | 0.0 | 0.0 | 0.0 | 0.0 | 4.0 | 6.0 | 0.0 | 0.0 | 4.0 | 8.0 | 7.0 | 9.0 | 9.0 | 9.0 | 0.0 | 0.0 | 2.0 | 4.0 |  | 
Cn1c(C(F)(F)F)cc(=O)n(-c2ccc3snc(C(=O)CCl)c3c2)c1=O [Example 338, 2,4(1H,3H)-Pyrimidinedione, 3-[3-(chloroacetyl)-1,2-benzisothiazol-5-yl]-1-methyl-6-(trifluoromethyl)-] |  |  |  |  |  |  |  |  |  |  |  |  |  |  |  |  |  |  |  | 2.0 | herbicidal effect rating, ECHORC ([1]; Rate 0.0620 kg/ha): 2.0; herbicidal effect rating, ECHORC ([1]; Rate 0.1250 kg/ha): 4.0; herbicidal effect rating, ECHORC ([1]; Rate 0.2500 kg/ha): 9.0; herbicidal effect rating, CYPSE ([2]; Rate 0.0320 kg/ha): 0.0; herbicidal effect rating, CYPSE ([2]; Rate 0.0620 kg/ha): 0.0; herbicidal effect rating, CYPSE ([2]; Rate 0.1250 kg/ha): 0.0; herbicidal effect rating, CYPSE ([2]; Rate 0.2500 kg/ha): 5.0; herbicidal effect rating, CYPIR (Cyperus iria; Rate 0.0320 kg/ha): 3.0; herbicidal effect rating, CYPIR (Cyperus iria; Rate 0.0620 kg/ha): 3.0; herbicidal effect rating, CYPIR (Cyperus iria; Rate 0.1250 kg/ha): 3.0; herbicidal effect rating, CYPIR (Cyperus iria; Rate 0.2500 kg/ha): 8.0; herbicidal effect rating ORYSAT ([4]; Rate 0.0320 kg/ha): 0.0; herbicidal effect rating ORYSAT ([4]; Rate 0.0620 kg/ha): 0.0; herbicidal effect rating ORYSAT ([4]; Rate 0.1250 kg/ha): 3.0; herbicidal effect rating ORYSAT ([4]; Rate 0.2500 kg/ha): 6.0; herbicidal effect rating, SAGPY (Sagittaria pygmaea, L.; Rate 0.0320 kg/ha): 0.0; herbicidal effect rating, SAGPY (Sagittaria pygmaea, L.; Rate 0.0620 kg/ha): 2.0; herbicidal effect rating, SAGPY (Sagittaria pygmaea, L.; Rate 0.1250 kg/ha): 2.0; herbicidal effect rating, SAGPY (Sagittaria pygmaea, L.; Rate 0.2500 kg/ha): 5.0
CSc1ccc(C)cc1-c1nsc2ccc(-n3c(=O)cc(C(F)(F)F)n(C)c3=O)cc12 [Example 342, 2,4(1H,3H)-Pyrimidinedione, 1-methyl-3-{3-[6-(methylthio)-m-tolyl]-1,2-benzisothiazol-5-yl}-6-(trifluoromethyl)-] |  |  |  |  |  |  |  |  |  |  |  |  |  |  |  |  |  |  |  | 4.0 | herbicidal effect rating, ECHORC ([1]; Rate 0.0620 kg/ha): 4.0; herbicidal effect rating, ECHORC ([1]; Rate 0.1250 kg/ha): 7.0; herbicidal effect rating, ECHORC ([1]; Rate 0.2500 kg/ha): 7.0; herbicidal effect rating, CYPSE ([2]; Rate 0.0320 kg/ha): 0.0; herbicidal effect rating, CYPSE ([2]; Rate 0.0620 kg/ha): 0.0; herbicidal effect rating, CYPSE ([2]; Rate 0.1250 kg/ha): 0.0; herbicidal effect rating, CYPSE ([2]; Rate 0.2500 kg/ha): 9.0; herbicidal effect rating, CYPIR (Cyperus iria; Rate 0.0320 kg/ha): 0.0; herbicidal effect rating, CYPIR (Cyperus iria; Rate 0.0620 kg/ha): 0.0; herbicidal effect rating, CYPIR (Cyperus iria; Rate 0.1250 kg/ha): 4.0; herbicidal effect rating, CYPIR (Cyperus iria; Rate 0.2500 kg/ha): 8.0; herbicidal effect rating ORYSAT ([4]; Rate 0.0320 kg/ha): 0.0; herbicidal effect rating ORYSAT ([4]; Rate 0.0620 kg/ha): 0.0; herbicidal effect rating ORYSAT ([4]; Rate 0.1250 kg/ha): 2.0; herbicidal effect rating ORYSAT ([4]; Rate 0.2500 kg/ha): 3.0; herbicidal effect rating, SAGPY (Sagittaria pygmaea, L.; Rate 0.0320 kg/ha): 0.0; herbicidal effect rating, SAGPY (Sagittaria pygmaea, L.; Rate 0.0620 kg/ha): 0.0; herbicidal effect rating, SAGPY (Sagittaria pygmaea, L.; Rate 0.1250 kg/ha): 0.0; herbicidal effect rating, SAGPY (Sagittaria pygmaea, L.; Rate 0.2500 kg/ha): 2.0

Reference: patent EP0908457B1, “3-(1,2-benzisothiazol- and isoxazol-5-Y1)-2,4(1H,3H)-pyrimidinedione or thione and 3-(1,2-benzisothiazol- and isoxazol-5-y1)-4(3H)-pyrimidinone or thione herbicidal agents” (BASF AKTIENGESELLSCHAFT, priority 1997, dated 1999)
